“Also recorded” adds a separate entry of the source.
Legend:
[1] = system: CHO cells; assay: Aβ in conditioned medium of CHO cells (lack ECE activity) treated with phosphoramidon; assay type: cell-based, hamster; conditions: non-transfected CHO cells; high concentrations of phosphoramidon
Protocol: (§1) Human and guinea pig Aβ40 or Aβ42 was measured in plasma by sandwich ELISA as previously described (Suzuki et al., 1994, Science, 264:1336-1340) using the BAN-50/BA-27 or BAN-50/BC-05 antibody systems, respectively (Takeda; Japan). Hamster Aβ40- or Aβ42-derived from CHO cells was measured using the BNT-77/BA-27 or BNT-77/BC-05 antibody systems, respectively. Aβ concentration in samples was determined by comparison to synthetic Aβ40 or Aβ42 standards (Bachem, Switzerland). Data was obtained from triplicate wells.
(§2) In particular, the sandwich ELISA used herein was performed as follows: 96-well microtiter plates were coated overnight at 4° C. with 100 μl of a 5 μg/ml dilution of primary antibody in sodium carbonate coating buffer (SCCB; 0.1 M Na2CO3, pH 9.6). […] Plates were read at 450 nm in a SpectraMax Plus spectrophotometer (Molecular Devices; Sunnyvale, Calif.) and analyzed by SOFTmax® PRO software. Aβ40 or Aβ42 were quantitated by comparison with the values obtained for each synthetic Aβ standard from the same plate.
Cells were passaged into 6-well plates one day prior to treatment and grown to confluence. […] After treatment, the culture medium was harvested, spun at 14,000 xg, and the supernatant analyzed for Aβ40 or Aβ42 using sandwich ELISA and for secreted APP using Western blot. […]

[2] = system: H4 neuroglioma cells; assay: Extracellular Aβ after treatment of H4 cells with metalloprotease inhibitors; assay type: cell-based, human
Protocol: as §1
In particular, the sandwich ELISA used herein was performed as follows: 96-well microtiter plates were coated overnight at 4° C. with 100 μl of a 5 μg/ml dilution of primary antibody in sodium carbonate coating buffer (SCCB; 0.1 M Na2CO3, pH 9.6). Plates were blocked overnight at 4° C. with 300 μl of BLOCKAGE Solution (PBS+1.0% BLOCKAGE (Snow Brand Milk Products, Japan), 0.05% NaN3, pH 7.4). Samples for analysis and synthetic Aβ standards (Bachem, Switzerland) were diluted in buffer EC (0.02 M NaH2PO4, 0.002 M EDTA, 0.4 M NaCl, 0.2% BSA, 0.05% CHAPS, 0.04% BLOCKAGE, 0.05% NaN3, pH 7.0) and allowed to incubate on the plates overnight at 4° C. Plates were washed twice with PBS (8 mM Na2HPO4, 1.5 mM KH2PO4, 139 mM NaCl, 2.7 mM KCl, pH 7.4) and 100 μl of secondary antibody directly coupled to HRP (EZ-LINK™ Plus Activated Peroxidase kit (contents of kit: peroxidase, 5 M sodium cyanoborohydride solution (NaBH3CN), quenching buffer (3 M ethanolamine, pH 9.0), BupH™ phosphate buffered saline, Buph™ carbonate-bicarbonate buffer), according to manufacturers directions; Pierce Chemical Co., Rockford, Ill.) was allowed to bind either 4 hrs at room temperature or overnight at 4° C. Plates were then washed twice with PBS containing 0.05% Tween 20 followed by two additional washes in PBS. Detection was performed using TMB (3,3′,5,5′-tetramethyl-benzidine) as an HRP substrate according to the manufacturer's specifications (Kirkegaard & Perry Laboratories (KPL), Gaithersburg, Md.) and the reaction stopped by the addition of 100 μl of 1N H3PO4. Plates were read at 450 nm in a SpectraMax Plus spectrophotometer (Molecular Devices; Sunnyvale, Calif.) and analyzed by SOFTmax® PRO software. Aβ40 or Aβ42 were quantitated by comparison with the values obtained for each synthetic Aβ standard from the same plate.
Cells were passaged into 6-well plates one day prior to treatment and grown to confluence. […] After treatment, the culture medium was harvested, spun at 14,000 xg, and the supernatant analyzed for Aβ40 or Aβ42 using sandwich ELISA and for secreted APP using Western blot. […] Bound antibody was detected by incubation with the appropriate HRP-linked secondary antibody (Amersham, Uppsala, Sweden) using ECL™ Western blotting reagents (Amersham) followed by exposure to X-ray film. […]

[3] = system: ECE-transfected CHO cells; assay: Removal of synthetic Aβ40 spiked into culture medium of ECE-transfected CHO cells; assay type: cell-based, hamster
Protocol: as §1, §2
To determine whether extracellular removal of Aβ accounted, at least in part, for the dramatic decrease in extracellular Aβ concentration in ECE-transfected cell lines, synthetic Aβ40 was spiked into the culture medium in the presence or absence of phosphoramidon and the amount of unhydrolyzed Aβ was determined at 6 or 24 hrs by sandwich ELISA. […]

[4] = system: neuronal cell lines; conditions: previously shown; cited from earlier work

Q: Which “concentration of Aβ in the conditioned medium” value [1] does the source give for `CC(C)C[C@H](NP(=O)(O)O[C@@H]1O[C@@H](C)[C@H](O)[C@@H](O)[C@H]1O)C(=O)N[C@@H](Cc1c[nH]c2ccccc12)C(=O)O` [phosphoramidon] here?
A: did not affect; also recorded: unaffected

Q: What about the “Aβ accumulation in parallel culture wells without synthetic Aβ” value ([2]; H4 cells, parallel to the spiking experiment) of the same compound?
A: promoting Aβ accumulation

Q: And the “extracellular Aβ accumulation” value ([2]; H4 neuroglioma cells, thiorphan or captopril at concentrations greater than 1000-times the reported IC50 for the target enzymes)?
A: significant elevation

Q: What about the “extracellular concentration of synthetic Aβ” value ([3]; 6 hr incubation, ECE-transfected and untransfected CHO cells, spiked synthetic Aβ40) of the same compound?
A: not affected

Q: What about the “ECE-1a-induced increase in Aβ removal” value ([3]; 24 hr, ECE-1a-transfected CHO cells treated with phosphoramidon) of the same compound?
A: completely attenuated

Q: And the “increase in the concentration of Aβ40 and Aβ42 in the conditioned medium” value [4]?
A: 2- to 3 fold
